# Assay results: ChEMBL document CHEMBL5724796, “Tm Shift (DSF) assay results for EUbOPEN Chemogenomics Library” (2024)
# Non-standard residues stand in square brackets, D forms with d. Residues, ends and D or L forms follow the SMILES beside them. *: point of attachment. Benzoyl(4-tBu) = CC(C)(C)c1ccc(C(=O)*)cc1; Lys(Et2) = CCN(CC)CCCC[C@H](N)C(=O)O; Cbz = O=C(OCc1ccccc1)*; CH2Cl = ClC*
# Key:
# [1] = molecular target: T1, Peregrin (Homo sapiens) (UniProt P55201); settings: Compound concentration 20.0 uM
# T1 sequence (whole entry): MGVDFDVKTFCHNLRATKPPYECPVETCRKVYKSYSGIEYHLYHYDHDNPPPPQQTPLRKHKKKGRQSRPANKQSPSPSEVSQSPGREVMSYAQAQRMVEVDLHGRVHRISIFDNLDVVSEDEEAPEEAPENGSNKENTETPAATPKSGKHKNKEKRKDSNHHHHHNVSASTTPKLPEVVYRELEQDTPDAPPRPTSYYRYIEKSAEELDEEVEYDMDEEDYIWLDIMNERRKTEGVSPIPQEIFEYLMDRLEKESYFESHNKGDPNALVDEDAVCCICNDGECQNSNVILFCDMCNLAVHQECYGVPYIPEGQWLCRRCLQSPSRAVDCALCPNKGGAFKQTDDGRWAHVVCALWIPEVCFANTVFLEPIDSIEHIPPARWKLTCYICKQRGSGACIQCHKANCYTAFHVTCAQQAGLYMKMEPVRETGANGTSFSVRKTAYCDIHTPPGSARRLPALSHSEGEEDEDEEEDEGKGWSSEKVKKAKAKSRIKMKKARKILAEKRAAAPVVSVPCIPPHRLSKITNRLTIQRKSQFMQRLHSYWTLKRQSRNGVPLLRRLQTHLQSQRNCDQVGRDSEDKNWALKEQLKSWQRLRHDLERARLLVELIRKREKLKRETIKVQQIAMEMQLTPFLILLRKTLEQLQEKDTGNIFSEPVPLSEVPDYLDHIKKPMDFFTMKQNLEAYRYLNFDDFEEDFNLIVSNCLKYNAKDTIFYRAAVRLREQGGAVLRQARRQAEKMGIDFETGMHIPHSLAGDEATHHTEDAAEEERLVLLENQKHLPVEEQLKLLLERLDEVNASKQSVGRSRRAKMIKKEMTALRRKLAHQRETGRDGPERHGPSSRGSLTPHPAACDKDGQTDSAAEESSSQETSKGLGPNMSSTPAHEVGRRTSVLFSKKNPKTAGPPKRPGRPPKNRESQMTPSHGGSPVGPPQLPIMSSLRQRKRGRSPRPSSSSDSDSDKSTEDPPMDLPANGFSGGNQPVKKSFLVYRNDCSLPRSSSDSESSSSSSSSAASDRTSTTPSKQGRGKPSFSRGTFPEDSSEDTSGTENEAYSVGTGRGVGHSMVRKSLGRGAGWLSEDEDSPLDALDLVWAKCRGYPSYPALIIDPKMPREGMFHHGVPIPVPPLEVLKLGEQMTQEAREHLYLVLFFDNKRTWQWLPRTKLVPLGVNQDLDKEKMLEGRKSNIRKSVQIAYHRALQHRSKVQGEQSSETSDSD
# [2] = molecular target: Fibroblast growth factor receptor 2 (Homo sapiens) (UniProt P21802); settings: Compound concentration 20.0 uM
# Fibroblast growth factor receptor 2 (Homo sapiens), sequence (P21802 22-821 limits assumed): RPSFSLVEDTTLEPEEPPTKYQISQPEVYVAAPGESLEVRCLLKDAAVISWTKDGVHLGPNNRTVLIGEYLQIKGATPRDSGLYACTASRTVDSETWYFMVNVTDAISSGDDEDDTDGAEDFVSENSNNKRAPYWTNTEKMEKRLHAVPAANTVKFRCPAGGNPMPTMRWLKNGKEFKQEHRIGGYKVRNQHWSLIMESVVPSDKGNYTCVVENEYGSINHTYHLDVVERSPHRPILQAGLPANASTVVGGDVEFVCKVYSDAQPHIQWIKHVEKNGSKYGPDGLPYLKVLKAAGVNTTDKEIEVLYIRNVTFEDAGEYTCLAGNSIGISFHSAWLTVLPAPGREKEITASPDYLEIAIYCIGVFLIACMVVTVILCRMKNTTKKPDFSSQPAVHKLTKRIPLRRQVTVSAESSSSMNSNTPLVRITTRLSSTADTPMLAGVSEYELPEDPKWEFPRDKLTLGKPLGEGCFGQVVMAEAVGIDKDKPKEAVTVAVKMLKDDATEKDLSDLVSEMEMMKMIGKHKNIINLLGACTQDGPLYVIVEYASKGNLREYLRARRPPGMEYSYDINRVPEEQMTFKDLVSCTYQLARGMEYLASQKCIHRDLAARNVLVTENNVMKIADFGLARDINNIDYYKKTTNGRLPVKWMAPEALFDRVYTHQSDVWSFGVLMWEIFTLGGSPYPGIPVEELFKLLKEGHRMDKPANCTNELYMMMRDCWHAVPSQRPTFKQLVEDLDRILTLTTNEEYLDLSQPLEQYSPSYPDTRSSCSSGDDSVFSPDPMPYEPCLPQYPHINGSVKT
# Description: Thermal Shift Assay. Domain: start/stop: T457-E768
Structure (SMILES),ΔTm [1] [°C],ΔTm [2] [°C],ΔTm ([1]; Protein concentration 2.0 uM) [°C]
CC(C)(F)C[C@H](N[C@@H](c1ccc(-c2ccc(S(C)(=O)=O)cc2)cc1)C(F)(F)F)C(=O)NC1(C#N)CC1,-1.04,0.18,
CCN(CC)S(=O)(=O)c1cc(Nc2nccc(-c3ccnc(-c4ccc(NC(=O)NC)cc4)c3)n2)ccc1Cl,-7.45,-4.8,
O=c1[nH]ccc2cc(F)c(NS(=O)(=O)c3ccc(N4CC[C@@H](O)C4)s3)cc12,-1.14,0.54,
CCn1c(=O)c(C)cn(Cc2nnc(-c3ccc(F)c(O)c3F)s2)c1=O,-0.64,0.53,
O=C(Nc1ccccc1C(=O)O)c1cc(S(=O)(=O)c2ccccc2)ccc1Cl,0.95,-0.48,
CN1CC(=O)N2[C@H](c3ccc4c(c3)OCO4)c3[nH]c4ccccc4c3C[C@@H]2C1=O,0.06,-0.7,
O=C(O)c1cccc(-c2ccc(-c3cn(C(=O)N4CCCCC4Cc4ccccc4)nn3)cc2)c1 (stereo not drawn),-2.81,-0.39,
CCN(c1cc(C#CCN2CCOCC2)cc(C(=O)NCc2c(C)cc(C)[nH]c2=O)c1C)[C@H]1CC[C@H](N(C)CCOC)CC1,-1.63,0.42,
CNCc1ccc(-c2[nH]c3cc(F)cc4c3c2CCNC4=O)cc1,3.14,-0.11,
CC(C)(OCc1cc(-c2cccc(OC3CC3)c2)n(-c2ccccc2Cl)n1)C(=O)O,0.83,-0.52,
CN(CCCCCCNc1ccnc2cc(Cl)ccc12)CCCCCCNc1ccnc2cc(Cl)ccc12,0.99,0.43,
NCCCOc1cc2ccccc2cc1C(=O)NCCOc1cc2ccccc2cc1C(=O)Nc1ccc(Cl)cc1O,0,-1.59,
CCc1c(-c2ccccc2)c(-c2ccccc2)nn1-c1ccccc1-c1cccc(OCC(=O)O)c1,-3.01,-1.61,
CC(=O)N[C@@H](CC(C)C)C(=O)N[C@@H](CCC(=O)O)C(=O)N[C@@H](Cc1cnc[nH]1)C(=O)N[C@@H](CC(=O)O)C(=O)CCl (Ac-LEHD-CH2Cl),-1.13,0.65,
Cc1ccc(NC2=CC(=O)c3sc(C)nc3C2=O)cc1,-1.72,-0.13,
N[C@@H](CCNCc1ccc(Cl)cc1)C(=O)N1CCCCC1,0.85,-0.56,
COc1cc2c(NC3CCN(CC4CCCCC4)CC3)nc(N3CCCN(C(C)C)CC3)nc2cc1OCCCN1CCCCC1,-0.98,0.65,
CN(C)CCCCC(=O)Nc1ccc(NC(=S)NC(=O)c2ccc(C(C)(C)C)cc2)cc1,-0.35,-0.03,
Nc1cc(F)ccc1NC(=O)c1ccc(CNC(=O)/C=C/c2cccnc2)cc1,-0.89,0.58,
COc1ccc(CC[C@H]2CCC[C@@H](CCc3ccc(OC)cc3)N2C[C@@H](O)CO)cc1,0.69,-0.53,

Structure (SMILES),ΔTm [1] [°C],ΔTm [2] [°C],ΔTm ([1]; Protein concentration 2.0 uM) [°C]
O=C(NCc1ccc(Cl)cc1)C1CCN(S(=O)(=O)c2cc(Cl)cc(Cl)c2)CC1,1.09,-0.34,
CC(C)(C)c1ccc(CN(C(=O)CN(Cc2c(F)c(F)c(F)c(F)c2F)S(=O)(=O)c2ccc(F)cc2)c2ccc(C(=O)NO)cc2)cc1,-3.76,1.58,
COc1ccc(-n2c(SCCCN3C(=O)c4cccc5cccc(c45)C3=O)nnc2-c2ccncc2)cc1,0.39,0.21,
Nc1nc(C(F)(F)F)nc2c1nnn2C[C@H]1CN(Cc2nccs2)CCO1,1.22,0.48,
CN1CCN2c3c(cccc31)[C@@H]1CN(CCCC(=O)c3ccc(F)cc3)CC[C@@H]12,-0.19,-0.37,
COC(=O)c1ccc(CN2CCC(O)(Cn3cnc4c(-c5ccc(CN)cc5)n(C)nc4c3=O)CC2)c(Cl)c1,1.55,-0.37,
O=C1Cc2cc(C(=O)N[C@@H]3C[C@H]4CC[C@@H](C3)N4S(=O)(=O)CC3CCN(CCCC(F)(F)F)CC3)c(Cl)cc2N1,-0.66,-0.16,
Cc1c(F)c(N)cc(C(=O)Nc2cc(-n3cc(C(=O)NCCCN4CCOCC4)nn3)ccc2N2CCN(C)CC2)c1Cl,-0.29,0.03,
COc1cc(C(C)C)c2c(c1)S(=O)(=O)N(COc1cc(=O)n3cccc(OCCN4CCCCC4)c3n1)C2=O,-1.13,1.04,
C[C@H](N)C(=O)N1C[C@H](CCCB(O)O)[C@](N)(C(=O)O)C1,-0.07,0.25,
NC(=O)c1ccc(Oc2ccc(C(N)=O)cc2)cc1,-2.11,0.24,
COc1ccc(Cc2nc(O)c3c(C)nc([C@@H](CCCc4ccccc4)[C@@H](C)O)n3n2)cc1OC,0.21,0.51,
CCN(CC)c1ccc(C2=NNC(=O)C[C@H]2C)cc1[N+](=O)[O-],1.09,0.2,
CCCCOc1c(OC)cc(C(=O)NCC2(N(C)C)CCOCC2)cc1OC,-1.37,-0.02,
C[C@H]1CCCN1Cc1nc2cc(NC(=O)c3ccc4c(cnn4C)c3)ccc2[nH]1,-1.47,0.51,
CC(=O)Nc1ccc(OC[C@](C)(O)C(=O)Nc2ccc([N+](=O)[O-])c(C(F)(F)F)c2)cc1,0.97,2.59,
O=C(CN1CCN(C(=O)c2ccco2)CC1)Nc1cc(C(F)(F)F)ccc1Cl,-0.04,0.27,
CCN(CC)CCCC[C@H](NC(=O)[C@H](CC(C)C)NC(=O)[C@H](C)NC(=O)[C@H](Cc1ccccc1)NC(=O)c1ccc(C(C)(C)C)cc1)C(=O)N[C@@H](CO)C(=O)OC ({Benzoyl(4-tBu)}-FAL[Lys(Et2)]S-OMe),-1.51,0.43,
NS(=O)(=O)c1cc(-c2nnn[nH]2)c(NCc2cccs2)cc1Cl,,0.38,2
O=C(C1CC1)N1CCN(Cn2sc3ccccc3c2=O)CC1,-1.36,0.46,

Structure (SMILES),ΔTm [1] [°C],ΔTm [2] [°C],ΔTm ([1]; Protein concentration 2.0 uM) [°C]
O=c1[nH][nH]c(=O)c2cc(OCc3ccsc3)ccc12,3.18,0.19,
COC(=O)C1=C(C(=O)OC)[C@@]2([C@@H](Cc3ccc(C)cc3)Nc3ccccc3)C=C[C@@H]1O2,-3.55,0.51,
CN(Cc1ccccc1)c1ccc2cc(C(=O)O)c(=O)oc2c1,0.71,0.34,
Cn1c(OC[C@H]2CC[C@H](C(F)(F)F)CC2)nn2c(C3CCOCC3)ncc2c1=O,2.25,-0.94,
C[C@@H]1CN(c2nccc(Nc3ccc4c(c3)n(CCC(C)(C)O)c(=O)n4C)n2)C[C@H](C)C1(F)F,-0.49,-0.7,
N#Cc1ccc([C@H]2CCCC[C@H]2O)cc1C(F)(F)F,-0.66,-0.09,
COC(=O)[C@H]1[C@H]2C[C@@H]3c4[nH]c5cc(OC)ccc5c4CCN3C[C@H]2C[C@@H](OC(=O)c2cc(OC)c(OC)c(OC)c2)[C@@H]1OC,0.08,-0.07,
CC(C)(C)NS(=O)(=O)c1ccc(NC(=O)[C@H](Cc2ccccc2)NC(=O)c2ccc(F)cc2)cc1,0.73,0.56,
O=CC1CCCN1C(=O)C1CCCN1C(=O)OCc1ccccc1 (stereo not drawn) (Cbz-Pro-Pro-aldehyde; configuration not given here),-0.94,0.49,
CS(=O)(=O)c1ccc(-c2nnc(C=Cc3nnc(-c4ccc(C#N)cc4)o3)n2-c2ccccc2Cl)nc1,,0.13,2
Cc1nc(N)c2nnn(C[C@H]3CN(Cc4nccs4)CCO3)c2n1,0.82,-0.39,
CS(=O)(=O)c1ccc(Oc2cc(F)cc(C#N)c2)c2c1C(O)C(F)C2 (stereo not drawn),0.86,-0.57,
COc1ccc(-c2ccc3c(c2)COC3=O)n2nc(C3(C(=O)OCC(C)C)CC3)nc12,0.76,0.71,
CNc1nccc(CN([C@H]2CC[C@H](N)CC2)S(=O)(=O)c2ccc(S(=O)(=O)N(Cc3ccc(Cl)cc3)C3CCCC3)cc2)n1,-1.21,-1.14,
CC(=O)N[C@@H](Cc1ccc(O)cc1)C(=O)N[C@H](C(=O)N[C@@H](C)C(=O)N[C@@H](CC(=O)O)C(=O)CCl)C(C)C,-1.75,0.63,
Nc1ncnc2c1ncn2[C@@H]1O[C@H](C[C@@H](N)CC[C@H](N)C(=O)O)[C@@H](O)[C@H]1O,-1.27,-1.33,
CCCC[C@]1(CC)CS(=O)(=O)c2cc(CNC(CC(=O)O)CC(=O)O)c(OC)cc2[C@@H](c2ccccc2)N1,1.87,0.6,
O=C1C(P(=O)(O)O)CCCN1O (stereo not drawn),-1.07,0.23,
COc1ccc(C(=O)C2CCN(CC(=O)N(Cc3nc4c(c(=O)[nH]3)COCC4)CC3CC3)CC2)cc1,2.73,-0.62,
